The values below come from patent publication US20160264636A1, “PEPTIDE INHIBITORS OF TEAD/YAP-TAZ INTERACTION” (UNIVERSITE PIERRE ET MARIE CURIE (PARIS 6), priority 2013, published 2016).

For data set [1], the system named is ES2 cells. Briefly: MTT cytotoxicity assay, ES2. The format is cell-based. The following applies: 72 h. The method, then:
(§1) The cytotoxicity of penetrating peptides or chemotherapeutic agents, alone or in combination, was evaluated by the (3-(4,5-dimethylthiazol-2-yl)-2,5-diphenyltetrazolium bromide) tetrazolium (MTT) reduction assay. The cells were seeded in 96-well plates (100 μL/well) at a cell density defined from growth curves. After 24 hours of incubation, cells were treated with the peptides for 72 hours. The wells were rinsed two times with RPMI. After washing, 10 μl of stock MTT solution (5 mg/ml; MTT (SIGMA #M-2128) in PBS Dubecco's 1× without Ca^2+ and Mg^2+) was added to a final volume of 100 μl of culture medium. Cell lines were incubated for additional 4 hours at 37° C. under humid atmosphere with 5% (v/v) CO2. The formation of blue formazan crystals was detected under a microscope. An equal volume of 10% SDS (MERCK, #926.238) in 10 mM HCl was added to each well and the plate was placed in the incubator overnight to dissolve formazan crystals. The plates were mixed to ensure complete solubilisation of formazan crystals and absorbance was measured at 570 nm and 620 nm. The percentage of viable cells was estimated using the formula: % cell viability=ΔOD(570-620) treated/ΔOD(570-620)control×100.
(§2) ES2, IGROV-1, OVCAR8 and SKOV3 cell lines come from human ovarian cancer.
(§3) Cell-penetrating peptides (CPPs) comprising the binding site of TEAD to TAZ or YAP or of YAP to TEAD (TAZ, TEAD and YAP peptides, respectively) were chemically synthesized. The effect of the peptides on cell viability was assayed on several human ovarian cancer cell lines. All the ovarian cancer cell lines were treated for 72 h with different peptide concentrations. Cytotoxicity was analysed as described in example 2.

For data set [2], the system named is MP41 uveal melanoma cells. Briefly: MTT cytotoxicity assay, MP41. The format is cell-based, human. The following applies: 72 h. The method, then:
as §1
MP41, MP46 and MP66 cell lines come from uveal melanoma patient derived xenografts. They were cultured in RPMI medium supplemented with 20% of FCS.
All the uveal melanoma cell lines were treated for 72 h with different concentrations of the peptides TAZ, “LV”, YAP and TEAD (SEQ ID NO: 35, 36, 37). Cytotoxicity was analysed as described in example 2. […] The best effect was shown in MP41 with about 40% cytotoxicity at 100 μM.

Data set [3] concerns MP46 uveal melanoma cells. The format is cell-based, human. The following applies: 72 h. The method, then: as §1, with “treated/ΔOD(570-620)control×100. […]” for “treated/ΔOD(570-620)control×100.”
(§4) All the uveal melanoma cell lines were treated for 72 h with different concentrations of the peptides TAZ, “LV”, YAP and TEAD (SEQ ID NO: 35, 36, 37). Cytotoxicity was analysed as described in example 2. […]

In data set [4] the test system is colon, lung and ovarian cancer cell lines. The data set is described as follows: MTT cytotoxicity, comparison of TAZ LV and VL peptides. The format is cell-based, human. The note with it: all lines tested except ES2: HCT116, HT29, SW480, OVCAR8, A549, HT1975; 72 h; 0.1 to 100 μM (FIGS. 5 to 8). As for the experimental part:
as §1

In data set [5] the test system is MP66 uveal melanoma cells. Briefly: MTT cytotoxicity assay, MP66. The format is cell-based, human. The note with it: MM66 (so in the source); 100 μM; 72 h. As for the experimental part:
as §1, with “treated/ΔOD(570-620)control×100. […]” for “treated/ΔOD(570-620)control×100.”
as §4

Data set [6] concerns A549 cells. It is filed as cell-based. The method, then: (§5) H1650, H1975, H1299, A549 cell lines were cultured in DMEM medium supplemented with 10% of FCS. HBEC cell lines (wt and Ras V12) were cultured in KSFM supplemented with growth factors. All the cell lines come from human non small cell lung cancer (NSCLC).
as §1
(§6) Cell-penetrating peptides (CPPs) comprising the binding site of TEAD to TAZ or YAP or of YAP to TEAD (TAZ, TEAD and YAP peptides, respectively) were chemically synthesized. The effect of the peptides on cell viability was assayed on several human non small cell lung cancer (NSCLC) cell lines. All the lung cancer cell lines were treated for 72 h with different peptide concentrations. Cytotoxicity was analysed as described in Materials and Methods.

Data set [7] concerns H1299 cells. It is filed as cell-based. The method, then:
as §5, §1, §6

The subject of data set [8] is H1650 cells. It is filed as cell-based. As for the experimental part: as §5, §1, §6
The subject of data set [9] is H1975 cells. The format is cell-based. As for the experimental part: as §5, §1, §6
In data set [10] the test system is HBEC RasV12 cells. It is filed as cell-based. As for the experimental part:
as §5, §1, §6

Data set [11] relates to HBEC wt cells. The format is cell-based. The note with it: for Cell viability (%): HBEC wt. As for the experimental part: as §5, §1, §6
Data set [12] has as its system SKOV3 cells. The data set is described as follows: MTT cytotoxicity assay, SKOV3. The format is cell-based. The following applies: Table VIII, 72 h, MTT, 25% cell death. As for the experimental part:
as §1, §2, §3

Data set [13] concerns IGROV-1 cells. Briefly: MTT cytotoxicity assay, IGROV. It is filed as cell-based. The note with it: Table VIII, 72 h, MTT, 25% cell death. The method, then: as §1, §2, §3
Data set [14] has as its system OVCAR8 cells. Briefly: MTT cytotoxicity assay, OVCAR8. It is filed as cell-based. The following applies: Table VIII, 72 h, MTT, 25% cell death. As for the experimental part: as §1, §2, §3
Setting [15] is: Table II, 72 h, MTT, 25% cell death.
Where [16] appears, read: Table V, drug alone vs its vehicle (Glucose 5% or NaCl).
[17] abbreviates: Table VI, peptide alone vs HPCD 10%.

Where two headings read alike, the source gives them in different places. Peptide text beside a SMILES is read from it. Where only a bound is given, the exact number is not on record here.

Consider `CC[C@H](C)[C@H](NC(=O)[C@H](CCCCN)NC(=O)[C@H](CCCCN)NC(=O)[C@H](CCCCN)NC(=O)[C@H](CCCCN)NC(=O)[C@@H](N)C(C)C)C(=O)N[C@@H](CCCCN)C(=O)N[C@@H](C)C(=O)N[C@@H](CCC(=O)O)C(=O)N[C@H](C(=O)N[C@@H](CCCCN)C(=O)N[C@H](C(=O)N1CCC[C@H]1C(=O)N1CCC[C@H]1C(=O)N[C@@H](Cc1c[nH]cn1)C(=O)N[C@@H](C)C(=O)N[C@@H](Cc1ccccc1)C(=O)N[C@@H](Cc1ccccc1)C(=O)N[C@@H](CC(C)C)C(=O)N[C@H](C(=O)N[C@@H](CCCCN)C(=O)N[C@@H](Cc1ccccc1)C(=O)N[C@@H](Cc1c[nH]c2ccccc12)C(=O)N[C@@H](C)C(=O)N[C@@H](CC(=O)O)C(=O)N[C@@H](CC(C)C)C(=O)N[C@@H](CC(N)=O)C(=O)N[C@@H](Cc1c[nH]c2ccccc12)C(=O)NCC(=O)N1CCC[C@H]1C(=O)N[C@@H](CO)C(=O)NCC(=O)N[C@@H](CCC(=O)O)C(=O)N[C@@H](CCC(=O)O)C(=O)N[C@@H](C)C(=O)NCC(=O)N[C@@H](C)C(=O)NCC(=O)O)C(C)C)[C@@H](C)CC)[C@@H](C)CC` [TAZ “LV”] (H-VKKKKIKAEIKIPPHAFFLVKFWADLNWGPSGEEAGAG-OH; N-terminus and C-terminus assumed), for which the “effect on cellular viability, TAZ “LV” compared with TAZ “VL”” value is recorded as “more effective than TAZ “VL”” in data set [1] (0.1 to 100 μM (FIG. 7)) and “same effect” in data set [4]. Further, the viability entry is on record as “about 20%” in data set [2] (human, 25 µM) and “about 20%” in [3] (human, 25 µM).
For the compound `CC[C@H](C)[C@H](NC(=O)[C@H](CCCCN)NC(=O)[C@H](CCCCN)NC(=O)[C@H](CCCCN)NC(=O)[C@H](CCCCN)NC(=O)[C@@H](N)C(C)C)C(=O)N[C@@H](CCCCN)C(=O)N[C@@H](C)C(=O)N[C@@H](CCC(=O)O)C(=O)N[C@H](C(=O)N[C@@H](CCCCN)C(=O)N[C@H](C(=O)N[C@@H](CCCNC(=N)N)C(=O)N[C@@H](CC(C)C)C(=O)N[C@@H](CCC(N)=O)C(=O)N[C@@H](CC(C)C)C(=O)N[C@H](C(=O)N[C@@H](CCC(=O)O)C(=O)N[C@@H](Cc1ccccc1)C(=O)N[C@@H](CO)C(=O)N[C@@H](C)C(=O)N[C@@H](Cc1ccccc1)C(=O)N[C@H](C(=O)N[C@@H](CCC(=O)O)C(=O)N1CCC[C@H]1C(=O)N1CCC[C@H]1C(=O)N[C@@H](CC(=O)O)C(=O)N[C@@H](C)C(=O)N[C@H](C(=O)N[C@@H](CC(=O)O)C(=O)O)C(C)C)C(C)C)C(C)C)[C@@H](C)CC)[C@@H](C)CC` [TEAD] (H-VKKKKIKAEIKIRLQLVEFSAFVEPPDAVD-OH; N-terminus and C-terminus assumed), the half-inhibitory concentration (IC50) was 35 µM in data set [2] and 44 µM in data set [3]. The cytotoxicity in [5] turned out to be 60%.
Consider `CC[C@H](C)[C@H](NC(=O)[C@H](CCCCN)NC(=O)[C@H](CCCCN)NC(=O)[C@H](CCCCN)NC(=O)[C@H](CCCCN)NC(=O)[C@@H](N)C(C)C)C(=O)N[C@@H](CCCCN)C(=O)N[C@@H](C)C(=O)N[C@@H](CCC(=O)O)C(=O)N[C@H](C(=O)N[C@@H](CCCCN)C(=O)N[C@H](C(=O)N[C@@H](CCCCN)C(=O)N[C@H](C(=O)N[C@@H](C)C(=O)N[C@@H](CC(N)=O)C(=O)N[C@H](C(=O)N1CCC[C@H]1C(=O)N[C@@H](CCC(N)=O)C(=O)N[C@H](C(=O)N[C@H](C(=O)N1CCC[C@H]1C(=O)N[C@@H](CCSC)C(=O)N[C@@H](CCCNC(=N)N)C(=O)N[C@@H](CC(C)C)C(=O)N[C@@H](CCCNC(=N)N)C(=O)N[C@@H](CCCCN)C(=O)N[C@@H](CC(C)C)C(=O)N1CCC[C@H]1C(=O)N[C@@H](CC(=O)O)C(=O)O)C(C)C)[C@@H](C)O)C(C)C)[C@@H](C)O)[C@@H](C)CC)[C@@H](C)CC` [YAP] (H-VKKKKIKAEIKIKTANVPQTVPMRLRKLPD-OH), for which the “Letal Dose (μM) LD25” value in [6] (setting [15]) is above 100 µM; in [7] (setting [15]) it was above 100 µM; in [8] (setting [15]) it was above 100 µM; in [9] (setting [15]) it was above 100 µM; in [10] (setting [15]), above 100 µM; in data set [11] (Table II, HBEC WT, 72 h, MTT, 25% cell death), above 100 µM. Besides, the “Letal Dose (μM) LD25” value in data set [1] (Table VIII, MTT, 25% cell death) is above 100 µM; in data set [12] it was above 100 µM; in data set [13], above 100 µM; in [14], above 100 µM. Moreover, the “Cell viability (%)” value was −23.19% in data set [6] (setting [16]); −10.25% in data set [6] (setting [17]); −40.21% in data set [7] (setting [16]); −13.8% in data set [7] (setting [17]); −45.14% in data set [8] (setting [16]); −4.488% in [8] (setting [17]). In addition, the “Cell viability (%)” value was −26.22% in data set [9] (setting [16]); −5.766% in data set [9] (setting [17]); −72.88% in data set [10] (setting [16]); −44.98% in data set [10] (setting [17]); −60.73% in [11] (setting [16]); −41.35% in data set [11] (setting [17]). Moreover, in data set [2] (MP41, 100 μM), the cytotoxicity entry is “about 40%”.
With “VKKKKIKAEIKI-PPHAFFVLKFWADLNWGPSGEEAGAG (VKKKKIKAEIKIPPHAFFVLKFWADLNWGPSGEEAGAG) [TAZ “VL”]”, the “effect on cellular viability, TAZ “LV” compared with TAZ “VL”” value in [4] was “same effect”.
